Columns and labels:
129 and CD-1 mice = assay: Litter size, sex ratio, body and tissue weights (toxicity); type: in vivo, mouse; details: transient embryonic exposure
Procedure: (§1) The experimental design involved exposing gestating female inbred 129 strain and outbred CD-1 strain mice to daily intraperitoneal (IP) injections of vehicle (DMSO) (control) or vinclozolin at two doses, 100 mg/kg/day (V1) or 200 mg/kg/day (V2), between embryonic day 7-13 of gestation. In addition, a comparison was used with flutamide IP injections at a 20/mg/kg/day dose. The F1 generation males and females from different litters were bred to generate the F2 generation animals and F2 generation males and females from different litters were bred to generate the F3 generation animals, see Methods below. No sibling or cousin breedings occurred to avoid any inbreeding artifacts. Selected F1, F2 and F3 generation animals from postnatal 90 (P90) or 300 (P300) days of age were analyzed for testis, sperm and other pathologies as previously described.^11, 20, 21
Timed pregnant inbred 129 mice were given intraperitoneal injections with vinclozolin (100 mg/kg·day, 99% pure; ChemService, West Chester, Pa.), flutamide (20 mg/kg·day, Sigma, St. Louis, Mo.) or DMSO in sesame oil (vehicle) as controls, while timed pregnant outbred CD-1 mice were given intraperitoneal injections (IP) with vinclozolin doses: 100 mg/kg·day (V1) or 200 mg/kg·day (V2) or DMSO in sesame oil as controls.^21 Mice were given injections from embryonic day (E) E7-E13, with plug date equal to day 0. Controls were injected with vehicle (DMSO) dose and were matched with vinclozolin or flutamide treatment animals within the same mouse strain at the time of injection and were analyzed together throughout all three generations. The number of treated gestating females used were: for mouse 129 strain (3 controls and 4 vinclozolin treated); for mouse 129 strain flutamide 20 mg/kg/day dose (3 controls and 3 flutamide treated); and for mouse CD-1 strain (4 control and 3 vinclozolin treated (100 mg/kg/day (V1), 3 vinclozolin 200 mg/kg/day (V2)). F1 postnatal (P)P90 males and females from different litters of control, vinclozolin and flutamide treatment groups were bred to generate the F2 generation. F2 generation mice were bred to generate the F3 generation. Breedings were carefully monitored to eliminate any sibling or cousin breeding to remove potential phenotypes as a result of inbreeding. Male mice were collected and analyzed between P60-P90 (P90) for all generations and treatment groups. The number of P90 males collected for replicates for the mouse 129 strain vinclozolin treatment group (i.e. n value) were: for F1 (8 control, 11 vinclozolin); for F2 (11 control, 22 vinclozolin); and for F3 (11 control, 11 vinclozolin). […]

[1] = test system: sperm promoter epigenome (DNA methylation); details: previous comparative MeDIP-Chip study; cited from earlier work
[2] = test system: testicular spermatogenic cells; assay: Testicular spermatogenic cell apoptosis (TUNEL assay), F1-F3 lineage after F0 gestational exposure; type: in vivo, mouse
Procedure: as §1
Timed pregnant inbred 129 mice were given intraperitoneal injections with vinclozolin (100 mg/kg·day, 99% pure; ChemService, West Chester, Pa.), flutamide (20 mg/kg·day, Sigma, St. Louis, Mo.) or DMSO in sesame oil (vehicle) as controls, while timed pregnant outbred CD-1 mice were given intraperitoneal injections (IP) with vinclozolin doses: 100 mg/kg·day (V1) or 200 mg/kg·day (V2) or DMSO in sesame oil as controls.^21 Mice were given injections from embryonic day (E) E7-E13, with plug date equal to day 0. Controls were injected with vehicle (DMSO) dose and were matched with vinclozolin or flutamide treatment animals within the same mouse strain at the time of injection and were analyzed together throughout all three generations. […] Male mice were collected and analyzed between P60-P90 (P90) for all generations and treatment groups. […]

rats = details: previous study; mammary tumors, prostate disease, kidney disease, testis and immune abnormalities; cited from earlier work

## C=CC1(C)OC(=O)N(c2cc(Cl)cc(Cl)c2)C1=O (racemic) [vinclozolin, (RS)-3-(3,5-dichlorophenyl)-5-methyl-5-vinyl-1,3-oxazolidine-2,4-dione]
129 and CD-1 mice; F1-F3
  body weight, testis weight index, or kidney weight index: no consistent transgenerational differences
129 and CD-1 mice; all generations analyzed
  litter size or male/female sex ratio: no consistent transgenerational effects
[1]
  number of promoters in rat sperm with transgenerational alteration in DNA methylation: 48
[2]; 129 inbred strain, vinclozolin 100 mg/kg/day IP to F0 E7-E13, F1, F2, F3 at P90, F1 and F2 at P300, vs control
  mean number of apoptotic germ cells within the testes: increased
[2]; CD-1 outbred strain, V1 100 mg/kg/day IP to F0 E7-E13, F1 and F3 P90, F1, F2, F3 P300
  testicular apoptotic germ cells: significant increases
rats
  frequencies of adult onset disease states: 20-50%
